# Measurements taken from ChEMBL document CHEMBL1153288, “1,3,4-Oxadiazole substituted naphthyridines as HIV-1 integrase inhibitors. Part 2: SAR of the C5 position” (Bioorg Med Chem Lett, 2009).
# Assays:
# [1] = Inhibition of recombinant HIV integrase strand transfer activity; design: species or system Human immunodeficiency virus
# [2] = system: Human immunodeficiency virus; assay: Antiviral activity against G-pseudotyped HIV expressed in 293T cells with pGI3Luci; format: functional, organism-based; conditions: Human immunodeficiency virus 1, HEK-293T
# [3] = Therapeutic index, CC50 for human 293T cells to EC50 for G-pseudotyped HIV; format: cell-based; conditions: read-out: Ratio CC50/EC50
SMILES,IC50 [1],EC50 [2],selectivity ratio [3]
CN(C)S(=O)(=O)c1ccc(-c2nc(-c3nnc(Cc4ccc(F)cc4)o3)c(O)c3ncccc23)cc1,18 nM,9 nM,218
CN(C)C(=O)c1ccc(-c2nc(-c3nnc(Cc4ccc(F)cc4)o3)c(O)c3ncccc23)cc1,18 nM,12 nM,668
O=C1CCCCN1c1nc(-c2nnc(Cc3ccc(F)cc3)o2)c(O)c2ncccc12,88 nM,87 nM,> 160
CNS(=O)(=O)c1ccccc1-c1nc(-c2nnc(Cc3ccc(F)cc3)o2)c(O)c2ncccc12,4 nM,22 nM,173
CC(C)NC(=O)c1ccc(-c2nc(-c3nnc(Cc4ccc(F)cc4)o3)c(O)c3ncccc23)cc1,4 nM,13 nM,95
O=C(NCCCO)c1nc(-c2nnc(Cc3ccc(F)cc3)o2)c(O)c2ncccc12,71 nM,470 nM,> 30
CNc1nc(-c2nnc(Cc3ccc(F)cc3)o2)c(O)c2ncccc12,74 nM,400 nM,30
O=C(O)c1cccc(-c2nc(-c3nnc(Cc4ccc(F)cc4)o3)c(O)c3ncccc23)c1,2 nM,230 nM,> 60
O=C1NCCN1c1nc(-c2nnc(Cc3ccc(F)cc3)o2)c(O)c2ncccc12,12 nM,45 nM,311
CN(C)S(=O)(=O)Nc1nc(-c2nnc(Cc3ccc(F)cc3)o2)c(O)c2ncccc12,15 nM,84 nM,127
CN1CCN(c2nc(-c3nnc(Cc4ccc(F)cc4)o3)c(O)c3ncccc23)S1(=O)=O,4 nM,63 nM,137
O=C1NCCCN1c1nc(-c2nnc(Cc3ccc(F)cc3)o2)c(O)c2ncccc12,11 nM,56 nM,> 250
CC(C)NC(=O)c1nc(-c2nnc(Cc3ccc(F)cc3)o2)c(O)c2ncccc12,190 nM,98 nM,22
O=C1CCCCCN1c1nc(-c2nnc(Cc3ccc(F)cc3)o2)c(O)c2ncccc12,25 nM,34 nM,> 411
CS(=O)(=O)c1ccc(-c2nc(-c3nnc(Cc4ccc(F)cc4)o3)c(O)c3ncccc23)cc1,9 nM,8 nM,301
CS(=O)(=O)c1ccccc1-c1nc(-c2nnc(Cc3ccc(F)cc3)o2)c(O)c2ncccc12,11 nM,23 nM,243
O=C1CN(C(=O)c2nc(-c3nnc(Cc4ccc(F)cc4)o3)c(O)c3ncccc23)CCN1,74 nM,> 14000 nM,
CN(C)C(=O)C(=O)N(C)c1nc(-c2nnc(Cc3ccc(F)cc3)o2)c(O)c2ncccc12,85 nM,310 nM,> 40
O=C(c1nc(-c2nnc(Cc3ccc(F)cc3)o2)c(O)c2ncccc12)N1CCC(O)CC1,27 nM,220 nM,> 65
CS(=O)(=O)Nc1nc(-c2nnc(Cc3ccc(F)cc3)o2)c(O)c2ncccc12,19 nM,110 nM,131
O=C1CNCCN1c1nc(-c2nnc(Cc3ccc(F)cc3)o2)c(O)c2ncccc12,38 nM,240 nM,58
NC(=O)c1nc(-c2nnc(Cc3ccc(F)cc3)o2)c(O)c2ncccc12,100 nM,160 nM,75
Oc1c(-c2nnc(Cc3ccc(F)cc3)o2)nc(-c2ccccn2)c2cccnc12,30 nM,56 nM,40
CC(C)NS(=O)(=O)c1ccccc1-c1nc(-c2nnc(Cc3ccc(F)cc3)o2)c(O)c2ncccc12,12 nM,8 nM,295
O=C(O)c1nc(-c2nnc(Cc3ccc(F)cc3)o2)c(O)c2ncccc12,860 nM,4400 nM,> 3

SMILES,IC50 [1],EC50 [2],selectivity ratio [3]
O=C(O)c1ccc(-c2nc(-c3nnc(Cc4ccc(F)cc4)o3)c(O)c3ncccc23)cc1,2 nM,58 nM,241
CC(=O)Nc1nc(-c2nnc(Cc3ccc(F)cc3)o2)c(O)c2ncccc12,72 nM,110 nM,127
CS(=O)(=O)Nc1ccc(-c2nc(-c3nnc(Cc4ccc(F)cc4)o3)c(O)c3ncccc23)cc1,3 nM,9 nM,915
CS(=O)(=O)Nc1cccc(-c2nc(-c3nnc(Cc4ccc(F)cc4)o3)c(O)c3ncccc23)c1,8 nM,14 nM,435
O=C1N(CCO)CCN1c1nc(-c2nnc(Cc3ccc(F)cc3)o2)c(O)c2ncccc12,13 nM,94 nM,148
CCOC(=O)C(=O)Nc1nc(-c2nnc(Cc3ccc(F)cc3)o2)c(O)c2ncccc12,33 nM,1300 nM,10
CN(C)C(=O)CN1CCN(c2nc(-c3nnc(Cc4ccc(F)cc4)o3)c(O)c3ncccc23)CC1,12 nM,43 nM,205
Oc1c(-c2nnc(Cc3ccc(F)cc3)o2)nc(-c2ccccc2)c2cccnc12,29 nM,36 nM,49
COCCNC(=O)c1nc(-c2nnc(Cc3ccc(F)cc3)o2)c(O)c2ncccc12,190 nM,,139
CS(=O)(=O)N1CCN(c2nc(-c3nnc(Cc4ccc(F)cc4)o3)c(O)c3ncccc23)CC1,19 nM,38 nM,162
CC(=O)Nc1ccc(-c2nc(-c3nnc(Cc4ccc(F)cc4)o3)c(O)c3ncccc23)cc1,4 nM,6 nM,591
O=S1(=O)CCCCN1c1nc(-c2nnc(Cc3ccc(F)cc3)o2)c(O)c2ncccc12,2 nM,13 nM,198
O=C(NCCO)c1nc(-c2nnc(Cc3ccc(F)cc3)o2)c(O)c2ncccc12,130 nM,1490 nM,> 9
Oc1c(-c2nnc(Cc3ccc(F)cc3)o2)nc(-c2ccc[nH]2)c2cccnc12,12 nM,160 nM,31
CC(C)NC(=O)c1cccc(-c2nc(-c3nnc(Cc4ccc(F)cc4)o3)c(O)c3ncccc23)c1,10 nM,28 nM,182
N#Cc1ccc(-c2nc(-c3nnc(Cc4ccc(F)cc4)o3)c(O)c3ncccc23)cc1,15 nM,26 nM,72
CN(C)C(=O)N1CCN(c2nc(-c3nnc(Cc4ccc(F)cc4)o3)c(O)c3ncccc23)C(=O)C1,23 nM,87 nM,120
CC(C)NS(=O)(=O)c1ccc(-c2nc(-c3nnc(Cc4ccc(F)cc4)o3)c(O)c3ncccc23)cc1,4 nM,15 nM,118
CNC(=O)c1nc(-c2nnc(Cc3ccc(F)cc3)o2)c(O)c2ncccc12,120 nM,150 nM,43
Oc1c(-c2nnc(Cc3ccc(F)cc3)o2)nc(-c2ccncc2)c2cccnc12,8 nM,35 nM,200
NC(=O)c1ccc(-c2nc(-c3nnc(Cc4ccc(F)cc4)o3)c(O)c3ncccc23)cc1,6 nM,10 nM,1220
CNC(=O)c1ccc(-c2nc(-c3nnc(Cc4ccc(F)cc4)o3)c(O)c3ncccc23)cc1,4 nM,12 nM,780
O=C1CN(c2nc(-c3nnc(Cc4ccc(F)cc4)o3)c(O)c3ncccc23)CCN1,7 nM,17 nM,844
Oc1c(-c2nnc(Cc3ccc(F)cc3)o2)nc(-c2cccnc2)c2cccnc12,11 nM,36 nM,194
N#Cc1nc(-c2nnc(Cc3ccc(F)cc3)o2)c(O)c2ncccc12,240 nM,> 35000 nM,
